Assay results reported in US20260041653A1, “AN HDAC INHIBITOR FOR TREATING CANCER WITH A MODIFIED STK11 ACTIVITY OR EXPRESSION” (Tango Therapeutics, Inc., priority 2022, published 2026).
Where “and” joins values, the source holds several entries; their conditions need not be identical. Equal entries are not always repeated. Where two headings read alike, the source gives them in different places.

How the values were obtained:
HDAC6 = biological target: T1, HDAC6 (Homo sapiens, UniProt Q9UBN7); test: Cellular NanoBRET assay, HDAC6; type: cell-based
T1 construct: expressed in transfected cells

STK11-null 3LL tumor = test: Anti-tumor efficacy in PD-1 resistant STK11-null 3LL model; type: in vivo; details: Compound I 75 mg/kg, Anti-PD1 10 mg/kg
Procedure: An in vivo anti-tumor efficacy of double combination treatment of Anti-PD1 and Compound I in a PD-1 resistant STK11-null 3LL model was performed. The parental (non STK11KO) 3LL line is relatively resistant to anti-PD1 treatment.
The animals (8/group) were divided into 4 groups: Group I was treated with a control antibody Anti-IgG2, group 2 was treated with anti-PD1 antibody, group 3 was treated with Compound I 75 mg/kg, and group 4 was treated with Compound 1 75 mg/kg and anti-PD1 antibody. Tumor volume and survival was monitored over the course of treatment. The tumor volume and survival was plotted by treatment group (FIG. 17A and FIG. 17B, respectively). The combination treatment with Compound I decreased the PD-1 resistance of this model caused by the SKT11 knockout to the baseline characteristic of the parental line as shown by Group 4's decreased tumor volume and increased survival over time compared to the other groups.

[1] = Caverage in mice with STK11-deleted MC38 tumors; type: in vivo, mouse; details: doses used in FIG. 12B and 12C
Pharmacokinetics in rats = type: in vivo, Sprague Dawley rats; details: rat, plasma
Procedure: The pharmacokinetics (PK) of Compound I in rats was determined following single IV bolus of 1 mg/kg in 20% wt/vol HPβCD, 1% vol/vol DMSO in saline or single PO dose of 3 mg/kg in 0.5% methylcellulose (MC) in water to male Sprague Dawley rats (fed for IV, fasted for PO). Plasma samples were collected from 3 animals/group at 0.05, 0.25, 0.5, 1, 2, 3, 4 8, and 24 hours after dosing.

[2] = Pharmacokinetics in beagle dogs; type: in vivo
Procedure: The PK of Compound I in beagle dogs was determined in plasma following single IV bolus and PO administration to non-naïve male and female beagle dogs. The vehicle used for IV was 20% wt/vol 2-hydroxypropyl β cyclodextrin (HPβCD), 1% vol/vol DMSO in saline, and PO was in 5% DMA, 30% PEG400 and 65% (30% HPβCD in water) (solution) or 0.5% MC (suspension). Plasma samples were collected from 3 animals/group at 0.083, 0.25, 0.5, 1, 3, 6, 9, 12, 24 and 48 hours after dosing.

hERG potassium channel = biological target: T2, hERG potassium channel (Homo sapiens, UniProt Q12809); test: hERG manual patch-clamp in HEK 293 cells; type: cell-based
T2 construct: expressed in transfected cells
Procedure: The effects of Compound I on a cloned human ether-à-go-go-related gene (hERG) potassium channels stably expressed in human embryonic kidney (HEK) 293 cells were measured using manual patch-clamp technique. Briefly, Compound I was soluble at 100 uM in 0.3% DMSO, pH 6.9. A does range-finding (DRF) assay was performed with Compound I at 3. 30, and 100 uM concentrations.

CYP2B6 = CYP2B6 (Homo sapiens, UniProt P20813); test: Metabolism by recombinant human CYP2B6; type: in vitro ADME; details: read-out: terminal half life (T1/2), rh CYP2B6
Procedure: (§1) Drug metabolizing enzymes involved in the biotransformation of Compound I were investigated using human liver microsomes (HLM) and recombinant enzymes. Compound I was stable in HLMs (>93% remaining after 240 minutes of incubation with HLM protein concentration at 0.6 mg/ml). CYP selective inhibitor experiments were not performed due to lack of appreciable Compound I turnover.

CYP2C8 = CYP2C8 (Homo sapiens, UniProt P10632); test: Metabolism by recombinant human CYP2C8; type: in vitro ADME; details: read-out: terminal half life (T1/2), rh CYP2C8
Procedure: as §1

CYP3A4 = CYP3A4 (Homo sapiens, UniProt P08684); test: CYP3A4 (Table 5); type: in vitro ADME; details: test not described
logD7.4 = type: physicochemical; details: pH 7.4
acetyl-histone H3 = test: PK/PD study, acetyl-histone H3 in tumor by Western blot; type: in vivo, C57BL/6 mice
Procedure: (§2) In a separate PK/PD study, MC38 tumor-bearing female C57BL/6 mice (12/group) were assigned to treatment groups with similar mean tumor volumes of approximately 430 mm^3 and treated with vehicle (5% N,N-dimethylacetamide [DMA]+30% polyethylene glycol [PEG] 400+65% of 30% 2-hydroxypropyl-beta-cyclodextrin [HP-β-CD] in water) or Compound I at 30, 100, and 300 mg/kg once daily (QD) for 2 days. Plasma samples were collected at 1, 2, 8 and 24 hours after last dose and analyzed for Compound I concentrations. Peripheral blood mononuclear cells (PBMC) and tumor samples were harvested at 2, 8, and 24 hours after last dose. The PBMC samples were processed for determination of mean florescent level of acetyl-histone H2B by flow cytometry. Tumor samples were processed for determination of protein levels of acetyl-histone H3 by Western blot.

[3] = Free fraction in mouse plasma; type: in vitro ADME; details: C57BL/6 mouse plasma
[4] = PK/PD study, body weight and clinical signs; type: in vivo, C57BL/6 mice; details: 30, 100, 300 mg/kg QD for 2 days
Procedure: as §2

A549 cells = test: Nanostring PanCancer IO360 profiling of A549 cells; type: cell-based; details: 96 hours; dose that increased H3K9Ac two-fold; vs vorinostat and domatinostat
Procedure: In this example, the gene expression changes between CoreDAC and other HDAC inhibitors was determined by Nanostring profiling.
Cells were harvested and Nanostring profiling using the PanCancer IO360 panel was performed on the three treatment groups (FIGS. 11A-C). The top three ranked gene ontology groups for each compound as determined from the Nanostring data in (FIGS. 11A-C top panel) were determined using the nSolver software (FIGS. 11A-C bottom panel).

T2 sequence (Q12809 whole entry): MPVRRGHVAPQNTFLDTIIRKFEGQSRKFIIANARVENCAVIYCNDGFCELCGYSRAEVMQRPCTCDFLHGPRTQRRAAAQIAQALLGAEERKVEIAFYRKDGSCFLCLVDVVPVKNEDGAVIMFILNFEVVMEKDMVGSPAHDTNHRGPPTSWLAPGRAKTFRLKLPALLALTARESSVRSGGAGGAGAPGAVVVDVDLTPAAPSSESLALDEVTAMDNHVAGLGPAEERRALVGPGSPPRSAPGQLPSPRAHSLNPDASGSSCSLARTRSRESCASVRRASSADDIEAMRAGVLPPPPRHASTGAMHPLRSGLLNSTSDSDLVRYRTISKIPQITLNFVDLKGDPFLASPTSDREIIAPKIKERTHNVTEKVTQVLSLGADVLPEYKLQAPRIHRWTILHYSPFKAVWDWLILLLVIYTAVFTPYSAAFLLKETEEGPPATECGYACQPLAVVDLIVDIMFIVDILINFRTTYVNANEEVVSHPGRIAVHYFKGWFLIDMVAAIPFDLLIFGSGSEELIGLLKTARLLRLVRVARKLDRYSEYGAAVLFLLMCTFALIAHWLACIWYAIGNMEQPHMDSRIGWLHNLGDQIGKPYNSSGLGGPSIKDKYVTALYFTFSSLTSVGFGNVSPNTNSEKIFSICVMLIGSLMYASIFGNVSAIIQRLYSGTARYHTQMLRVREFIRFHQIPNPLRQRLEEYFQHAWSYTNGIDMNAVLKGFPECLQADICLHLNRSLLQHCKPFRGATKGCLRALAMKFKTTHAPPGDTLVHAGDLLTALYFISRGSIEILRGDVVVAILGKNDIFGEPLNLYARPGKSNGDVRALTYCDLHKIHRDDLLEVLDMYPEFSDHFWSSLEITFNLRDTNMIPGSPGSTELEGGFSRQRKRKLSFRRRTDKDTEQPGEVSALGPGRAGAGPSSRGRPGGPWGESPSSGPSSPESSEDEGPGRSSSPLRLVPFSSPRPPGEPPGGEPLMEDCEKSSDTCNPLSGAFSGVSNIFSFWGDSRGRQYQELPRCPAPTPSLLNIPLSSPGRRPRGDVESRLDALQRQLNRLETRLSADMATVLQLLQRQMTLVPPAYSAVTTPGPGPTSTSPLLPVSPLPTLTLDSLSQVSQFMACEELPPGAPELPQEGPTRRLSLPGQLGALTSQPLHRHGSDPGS
CYP2B6, sequence (P20813 whole entry): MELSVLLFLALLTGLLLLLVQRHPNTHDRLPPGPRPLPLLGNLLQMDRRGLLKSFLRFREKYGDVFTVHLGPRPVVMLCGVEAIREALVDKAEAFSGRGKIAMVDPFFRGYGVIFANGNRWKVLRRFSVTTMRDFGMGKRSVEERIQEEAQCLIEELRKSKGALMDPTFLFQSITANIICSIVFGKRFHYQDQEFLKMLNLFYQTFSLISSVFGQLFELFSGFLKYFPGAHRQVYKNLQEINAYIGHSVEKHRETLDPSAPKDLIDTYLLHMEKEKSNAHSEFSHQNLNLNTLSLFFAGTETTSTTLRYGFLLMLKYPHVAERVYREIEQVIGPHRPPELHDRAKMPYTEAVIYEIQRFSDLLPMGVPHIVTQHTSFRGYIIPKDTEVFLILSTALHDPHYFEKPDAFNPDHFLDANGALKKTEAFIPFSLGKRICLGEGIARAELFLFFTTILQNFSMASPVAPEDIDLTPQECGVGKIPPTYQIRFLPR
T1 sequence (Q9UBN7 whole entry): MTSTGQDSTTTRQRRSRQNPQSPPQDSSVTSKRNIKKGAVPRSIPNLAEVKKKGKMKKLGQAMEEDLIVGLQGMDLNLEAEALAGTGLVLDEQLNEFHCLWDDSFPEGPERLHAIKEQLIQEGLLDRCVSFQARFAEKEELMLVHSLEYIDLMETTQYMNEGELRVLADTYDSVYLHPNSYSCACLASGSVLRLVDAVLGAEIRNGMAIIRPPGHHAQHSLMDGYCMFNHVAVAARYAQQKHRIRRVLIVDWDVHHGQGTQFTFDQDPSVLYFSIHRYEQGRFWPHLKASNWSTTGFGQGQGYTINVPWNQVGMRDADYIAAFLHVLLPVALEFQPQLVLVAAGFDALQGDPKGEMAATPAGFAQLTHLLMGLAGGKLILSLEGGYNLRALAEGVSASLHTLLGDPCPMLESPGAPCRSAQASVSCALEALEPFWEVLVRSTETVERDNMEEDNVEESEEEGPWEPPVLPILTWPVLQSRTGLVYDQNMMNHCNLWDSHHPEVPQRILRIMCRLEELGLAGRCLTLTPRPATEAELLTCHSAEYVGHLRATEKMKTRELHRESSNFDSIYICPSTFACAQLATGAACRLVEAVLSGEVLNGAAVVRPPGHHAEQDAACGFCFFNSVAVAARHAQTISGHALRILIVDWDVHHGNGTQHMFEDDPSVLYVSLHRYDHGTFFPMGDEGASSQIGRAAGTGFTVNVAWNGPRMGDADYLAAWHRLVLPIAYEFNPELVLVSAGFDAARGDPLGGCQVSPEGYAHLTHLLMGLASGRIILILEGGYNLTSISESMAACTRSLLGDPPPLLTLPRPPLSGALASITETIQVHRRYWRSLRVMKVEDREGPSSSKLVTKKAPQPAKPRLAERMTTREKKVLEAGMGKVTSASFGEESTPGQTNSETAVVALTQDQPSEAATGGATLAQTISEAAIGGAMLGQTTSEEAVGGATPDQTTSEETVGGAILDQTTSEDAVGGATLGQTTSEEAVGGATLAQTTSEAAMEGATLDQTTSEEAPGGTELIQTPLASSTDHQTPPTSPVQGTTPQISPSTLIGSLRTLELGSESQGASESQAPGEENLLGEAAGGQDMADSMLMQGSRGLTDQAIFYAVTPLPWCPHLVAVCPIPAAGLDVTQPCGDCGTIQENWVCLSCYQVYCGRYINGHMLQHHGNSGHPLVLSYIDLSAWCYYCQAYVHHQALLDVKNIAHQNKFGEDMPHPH
CYP3A4, sequence (P08684 whole entry): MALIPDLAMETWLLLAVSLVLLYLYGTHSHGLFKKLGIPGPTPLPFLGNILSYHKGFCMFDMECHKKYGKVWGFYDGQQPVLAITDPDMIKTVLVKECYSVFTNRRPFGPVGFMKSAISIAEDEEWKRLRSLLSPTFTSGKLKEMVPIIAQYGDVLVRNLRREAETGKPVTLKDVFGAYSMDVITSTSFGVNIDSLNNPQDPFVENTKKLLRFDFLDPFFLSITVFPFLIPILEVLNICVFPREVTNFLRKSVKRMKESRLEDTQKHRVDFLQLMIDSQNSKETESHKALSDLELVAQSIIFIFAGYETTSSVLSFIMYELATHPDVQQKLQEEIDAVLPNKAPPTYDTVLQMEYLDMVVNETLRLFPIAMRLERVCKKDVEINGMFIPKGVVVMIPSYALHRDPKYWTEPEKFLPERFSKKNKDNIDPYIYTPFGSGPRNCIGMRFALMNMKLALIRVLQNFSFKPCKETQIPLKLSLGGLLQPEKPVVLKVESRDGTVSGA
CYP2C8, sequence (P10632 whole entry): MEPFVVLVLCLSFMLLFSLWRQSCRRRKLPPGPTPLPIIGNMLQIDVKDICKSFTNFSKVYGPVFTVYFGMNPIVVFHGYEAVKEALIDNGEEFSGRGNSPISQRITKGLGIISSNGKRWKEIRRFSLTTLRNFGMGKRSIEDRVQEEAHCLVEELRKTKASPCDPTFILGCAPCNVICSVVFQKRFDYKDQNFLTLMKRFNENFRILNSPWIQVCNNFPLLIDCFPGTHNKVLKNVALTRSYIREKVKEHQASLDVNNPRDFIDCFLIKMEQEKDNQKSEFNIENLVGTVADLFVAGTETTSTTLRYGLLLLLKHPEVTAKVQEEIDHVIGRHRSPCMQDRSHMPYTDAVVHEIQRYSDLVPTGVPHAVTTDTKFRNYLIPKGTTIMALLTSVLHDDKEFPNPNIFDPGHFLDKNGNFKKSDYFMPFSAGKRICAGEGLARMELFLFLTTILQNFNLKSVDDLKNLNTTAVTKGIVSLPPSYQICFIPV

## C[S@@](=N)(=O)c1ccc(C(=O)Nc2cc(-c3ccc(F)cc3)ccc2N)cc1 [Compound I, (R)—N-(4-amino-4′-fluoro-[1,1′-biphenyl]-3-yl)-4-(S-methylsulfonimidoyl)benzamide]
HDAC6
  IC50: > 30 µM
STK11-null 3LL tumor
  Median TTE: 18 days
[1]
  Cavg, u: 192 nM
  Fold of HDAC1 IC50 (Caverage coverage): 3.5 fold
Pharmacokinetics in rats; male, Sprague Dawley
  half-life: 4.8 h
Pharmacokinetics in rats; male, Sprague Dawley, intravenous, 1 mg/kg, read-out: CL, p
  clearance: 7.7 mL/min/kg
Pharmacokinetics in rats; male Sprague Dawley rats, PO 3 mg/kg in 0.5% MC, fasted, IV 1 mg/kg, read-out: PO bioavailability (% F)
  bioavailability: 95.4% and 95%
[2]; beagle dogs, solution at 3 mg/kg, fasted, 3 mg/kg
  PO bioavailability (% F): 67%
[2]; both sexes, beagle, dog, plasma
  half-life: 8.4 h
[2]; both sexes, beagle, dog, plasma, intravenous, read-out: CL, p
  clearance: 9.6 mL/min/kg
[2]; both sexes, beagle, dog, plasma, po, 3 mg/kg, beagle dogs, solution at 3 mg/kg, fasted, read-out: PO bioavailability (% F)
  bioavailability: 67.4%
hERG potassium channel; Table 5, read-out: hERG IC50
  IC50: > 30 µM
hERG potassium channel; definitive hERG assay, replicates of 3, read-out: hERG potassium current IC50
  IC50: 71.1 µM
hERG potassium channel; human, HEK 293 cells stably expressing hERG, 3 uM, dose range-finding assay, read-out: inhibition of hERG currents
  inhibition at 3 µM: 15.7%
hERG potassium channel; human, HEK 293 cells stably expressing hERG, 30 uM, dose range-finding assay, read-out: inhibition of hERG currents
  inhibition at 30 µM: 45.9%
hERG potassium channel; human, HEK 293 cells stably expressing hERG, 100 uM, dose range-finding assay, read-out: inhibition of hERG currents
  inhibition at 100 µM: 73.6%
CYP2B6
  half-life: > 1 h
CYP2C8
  half-life: > 1 h
CYP3A4
  CYP3A4: No signal
logD7.4
  logD7.4: 1.9
acetyl-histone H3; 300 mg/kg QD, 2 days, 24 hours after last dose, vs vehicle control
  maximal induction of histone acetylation in tumor: 3.7 fold
acetyl-histone H3; 30, 100, 300 mg/kg QD, starting 2 hours after last dose
  tumor acetyl-histone protein levels: dose-dependent increase
[3]
  fraction unbound: 0.101
[4]
  body weight loss and clinical signs: No obvious body weight loss of more than 5% or adverse clinical signs
A549 cells
  number of genes regulated: regulates the expression of fewer genes
